We go through seven compounds from US6458962B1, “Sultams: catalyst systems for asymmetric reduction of a C=N intermediate biological compositions and methods for making the sultams” (The University of Tennesseee Research Corporation, priority 1999, dated 2002).

Data set [1] in a line: IC50 in the National Cancer Institute anti-HIV protocol (Weislow et al.), used with EC50 for the TI50. As to conditions: NCI protocol; read-out: ICSO. It counts as cell-based. The protocol:
(§1) The sultams of the invention were tested in accordance with the National Cancer Institute Protocol, Weislow, O. W., et al. (1989) J. Natl. Cancer Inst. 81:577-586, which is incorporated herein by reference. The protocol is also described in U.S. Pat. No. 5,843,990.

A further data set concerns HIV-1. Nature of the data set: Anti-HIV-1 activity, National Cancer Institute protocol (Weislow et al.). To be noted: for EC50: Human immunodeficiency virus 1, read-out: ECSO; for TLSO: ratio IC50/EC50, NCI protocol. Format: cell-based. The protocol:
as §1
The anti-HIV activity of compounds of the invention illustrated by the formula V shown above, is reported below.
Table III illustrates anti-HIV-1 activities of compounds of the invention, the substituents (shown in formula V).

In the case of `CN1C(c2cccc(F)c2)c2ccccc2S1(=O)=O` (single isomer, unassigned; (+)) [Compound 13, (+)-3-(3-Fluorophenyl)-2-methyl-2,3-dihydrobenzo[d]isothiazole 1,1-Dioxide], the melting point (usually the temperature, or range, at which the solid turns liquid) came out at 147 °C. For the same compound, the IC50 in data set [1] came to 147000 nM. In addition, in the data set with HIV-1, the EC50 was 179 nM and the TLSO worked out at 538.
Taken in the same sequence, the figures for `CN1[C@@H](c2cccc(Cl)c2)c2ccccc2S1(=O)=O` [Compound 11, (+)-(S)-3-(3-Chlorophenyl)-2-methyl-2,3-dihydrobenzo[d]isothiazole 1,1-Dioxide] were 164 °C, over 2000 nM, 86 nM and over 31.
`CN1[C@@H](c2ccccc2)c2ccccc2S1(=O)=O` [Compound 5, (+)-(S)-2-Methyl-3-phenyl-2,3-dihydrobenzo[d]isothiazole 1,1-Dioxide] registered a melting point of 156 to 157 °C. For the same compound, in data set [1], the IC50 was over 316000 nM. For the same compound, in the data set with HIV-1, the EC50 was determined as 471 nM and the TLSO is listed as over 674.
In turn, `CN1[C@@H](c2cccc(Br)c2)c2ccccc2S1(=O)=O` [Compound 9, (+)-(S)-3-(3-Bromophenyl)-2-methyl-2,3-dihydrobenzo[d]isothiazole 1,1-Dioxide] returned a melting point of 157 °C. The IC50 in data set [1] came to 101000 nM. Further, in the data set with HIV-1, the EC50 amounted to 74 nM and the TLSO was 136.5.
On to `Cc1cccc(C2c3ccccc3S(=O)(=O)N2C)c1` (single isomer, unassigned; (+)) [Compound 7, (+)-2-Methyl-3-(3-methylphenyl)-2,3-dihydrobenzo[d] isothiazole 1,1-Dioxide], for which the melting point turned out to be 154 °C. Besides, in data set [1], the IC50 is over 2000 nM. For the same compound, in the data set with HIV-1, the EC50 is 37 nM and the TLSO was over 54.
Take `Cc1ccccc1C1c2ccccc2S(=O)(=O)N1C` (single isomer, unassigned; (+)) [Compound 18, (+)-2-Methyl-3-(2-methylphenyl)-2,3-dihydrobenzo[d]isothiazole 1,1-Dioxide]: the melting point turned out to be 152 °C. Moreover, in data set [1], the IC50 came to 123000 nM. Moreover, in the data set with HIV-1, the EC50 was found to be 4680 nM and the TLSO is on record as 26.3.
In turn, `CN1[C@@H](c2cccc(I)c2)c2ccccc2S1(=O)=O` [Compound 15, (+)-(S)-2-Methyl-3-(3-iodophenyl)-2,3-dihydrobenzo[d]isothiazole 1,1-Dioxide] had a melting point of 156 °C. For the same compound, the IC50 in data set [1] is 62400 nM. For the same compound, in the data set with HIV-1, the EC50 was determined as 76 nM and the TLSO is recorded as 817.
